# In patent US20120271010A1, “HYDROPHILIC POLYMER COMPOUND HAVING ANTICOAGULATION EFFECT” (TORAY INDUSTRIES, INC., priority 2009, published 2012):
# Test system: blood collected from a volunteer
# Experiment: Measurement of whole blood clotting time (Sonoclot, ACT ONSET)
# Design: species or system human
# Protocol: The blood collected from a volunteer and citric acid were mixed at a volume ratio of 9/1 to prepare blood supplemented with citric acid.
# In a cuvette (NON-ACTIVATED CLOTTING TEST KIT), 18 μL of physiological saline solution was placed, and 14.8 μL of calcicol was added thereto, followed by further adding 342 μL of blood supplemented with citric acid. Thereafter, the measurement using Sonoclot Blood Coagulation/Platelet Function Analyzer (IMI) was carried out to define the obtained ACT ONSET value as whole blood clotting time. The whole blood clotting time of the blood collected by volunteer was 545 seconds.
smiles,measurement,setting,value
"CC1CNc2c(cccc2S(=O)(=O)N[C@@H](CCCNC(=N)N)C(=O)N2CC[C@@H](C)C[C@@H]2C(=O)O)C1 (mixture of isomers) [argatroban, (2R,4R)-4-methyl-1-((2S)-2-{[(3RS)-3-methyl-1,2,3,4-tetrahydroquinolin-8-yl]sulfonyl}amino-5-guanidinopentanoyl)piperidin-2-carboxylic acid]",Whole blood clotting time,2 μM argatroban solution in place of physiological saline solution,531 s
same,Whole blood clotting time,10 μM argatroban solution in place of physiological saline solution,746 s
same,Whole blood clotting time,20 μM argatroban solution in place of physiological saline solution,849 s
